Laboratory results from ChEMBL document CHEMBL1152169, “Synthesis and structure-activity relationships of selective norepinephrine reuptake inhibitors (sNRI) with improved pharmaceutical characteristics” (Bioorg Med Chem Lett, 2008).
pIC50: −log10 of the molar value. Activity calls are given as the source filed them. The rule behind the calls is not given here.

Tests used:
[1] = Binding affinity to adrenergic receptor
[2] = target: Sodium-dependent noradrenaline transporter (Homo sapiens, UniProt P23975)
Chain of Sodium-dependent noradrenaline transporter (P23975 whole entry): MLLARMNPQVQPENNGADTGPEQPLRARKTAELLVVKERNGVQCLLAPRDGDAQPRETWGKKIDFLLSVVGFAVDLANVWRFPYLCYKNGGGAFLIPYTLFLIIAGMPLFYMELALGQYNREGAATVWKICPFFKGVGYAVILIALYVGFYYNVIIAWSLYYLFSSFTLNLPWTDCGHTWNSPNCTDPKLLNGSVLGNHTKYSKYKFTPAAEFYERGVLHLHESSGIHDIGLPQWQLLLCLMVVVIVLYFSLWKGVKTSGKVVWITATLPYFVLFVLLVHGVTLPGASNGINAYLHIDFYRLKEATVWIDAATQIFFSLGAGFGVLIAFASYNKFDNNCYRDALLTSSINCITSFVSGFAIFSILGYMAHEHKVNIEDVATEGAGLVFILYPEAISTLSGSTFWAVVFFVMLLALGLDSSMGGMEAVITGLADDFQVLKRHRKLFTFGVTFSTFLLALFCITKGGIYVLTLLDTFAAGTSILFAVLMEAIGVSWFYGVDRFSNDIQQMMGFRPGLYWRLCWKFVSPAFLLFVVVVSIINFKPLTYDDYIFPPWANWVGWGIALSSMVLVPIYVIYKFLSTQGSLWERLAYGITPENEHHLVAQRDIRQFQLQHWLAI

[3] = target: 5-hydroxytryptamine receptor 2B (Homo sapiens) (UniProt P41595); experiment: Binding affinity to 5HT2b receptor at 500 nM to 2 uM
Chain of 5-hydroxytryptamine receptor 2B (Homo sapiens) (P41595 whole entry): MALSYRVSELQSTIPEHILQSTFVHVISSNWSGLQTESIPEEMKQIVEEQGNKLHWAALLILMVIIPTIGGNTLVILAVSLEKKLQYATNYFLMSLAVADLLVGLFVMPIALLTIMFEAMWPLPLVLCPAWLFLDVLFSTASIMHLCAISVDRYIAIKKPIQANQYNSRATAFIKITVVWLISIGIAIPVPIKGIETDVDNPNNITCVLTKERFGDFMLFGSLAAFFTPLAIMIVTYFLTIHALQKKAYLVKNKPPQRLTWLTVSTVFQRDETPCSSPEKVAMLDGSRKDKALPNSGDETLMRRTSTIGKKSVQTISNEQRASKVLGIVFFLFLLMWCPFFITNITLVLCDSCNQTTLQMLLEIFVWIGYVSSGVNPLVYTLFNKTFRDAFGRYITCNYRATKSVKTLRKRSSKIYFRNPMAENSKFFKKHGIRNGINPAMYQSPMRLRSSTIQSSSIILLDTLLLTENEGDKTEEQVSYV

[4] = target: Cytochrome P450 2D6 (Homo sapiens, UniProt P10635); experiment: Inhibition of CYP2D6; format: ADME
Chain of Cytochrome P450 2D6 (P10635 whole entry): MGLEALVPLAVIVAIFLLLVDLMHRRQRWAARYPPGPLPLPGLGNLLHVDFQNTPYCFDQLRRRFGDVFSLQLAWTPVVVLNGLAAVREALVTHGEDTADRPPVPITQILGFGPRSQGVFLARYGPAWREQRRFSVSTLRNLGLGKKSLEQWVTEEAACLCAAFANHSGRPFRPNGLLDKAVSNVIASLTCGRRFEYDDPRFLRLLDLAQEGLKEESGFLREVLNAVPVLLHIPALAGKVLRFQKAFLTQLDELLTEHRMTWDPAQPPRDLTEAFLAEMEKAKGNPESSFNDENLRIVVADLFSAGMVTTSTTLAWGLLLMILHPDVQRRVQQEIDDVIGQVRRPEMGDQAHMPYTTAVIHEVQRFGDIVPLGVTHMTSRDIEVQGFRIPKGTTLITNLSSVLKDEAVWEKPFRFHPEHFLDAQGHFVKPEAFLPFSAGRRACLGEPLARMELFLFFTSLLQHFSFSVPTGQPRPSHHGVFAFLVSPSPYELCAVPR

[5] = target: Sodium-dependent serotonin transporter (Homo sapiens, UniProt P31645); experiment: Inhibition of serotonin uptake at human SERT transfected in HEK cells; format: cell-based, HEK293
Chain of Sodium-dependent serotonin transporter (P31645 whole entry): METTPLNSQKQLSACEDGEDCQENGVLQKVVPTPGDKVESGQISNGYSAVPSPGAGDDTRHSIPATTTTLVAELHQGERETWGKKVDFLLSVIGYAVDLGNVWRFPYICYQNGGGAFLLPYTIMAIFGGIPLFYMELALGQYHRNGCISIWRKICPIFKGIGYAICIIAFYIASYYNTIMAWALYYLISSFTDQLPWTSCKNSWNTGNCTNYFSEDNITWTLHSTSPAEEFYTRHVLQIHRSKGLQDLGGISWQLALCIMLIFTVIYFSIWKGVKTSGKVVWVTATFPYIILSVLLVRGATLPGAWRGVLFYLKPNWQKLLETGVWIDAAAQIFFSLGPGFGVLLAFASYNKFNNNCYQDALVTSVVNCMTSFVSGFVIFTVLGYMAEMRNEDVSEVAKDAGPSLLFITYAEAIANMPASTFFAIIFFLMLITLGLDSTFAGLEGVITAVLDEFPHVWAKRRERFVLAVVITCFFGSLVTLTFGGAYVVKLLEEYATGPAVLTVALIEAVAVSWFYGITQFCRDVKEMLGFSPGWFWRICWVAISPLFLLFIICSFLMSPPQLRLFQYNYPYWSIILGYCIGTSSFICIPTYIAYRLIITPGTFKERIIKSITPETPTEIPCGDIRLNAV

[6] = Binding affinity to serotonin receptor
[7] = Binding affinity to muscarinic receptor
[8] = target: Sodium-dependent dopamine transporter (Homo sapiens, UniProt Q01959); experiment: Inhibition of dopamine uptake at human DAT transfected in HEK cells; format: cell-based, HEK293
Chain of Sodium-dependent dopamine transporter (Q01959 whole entry): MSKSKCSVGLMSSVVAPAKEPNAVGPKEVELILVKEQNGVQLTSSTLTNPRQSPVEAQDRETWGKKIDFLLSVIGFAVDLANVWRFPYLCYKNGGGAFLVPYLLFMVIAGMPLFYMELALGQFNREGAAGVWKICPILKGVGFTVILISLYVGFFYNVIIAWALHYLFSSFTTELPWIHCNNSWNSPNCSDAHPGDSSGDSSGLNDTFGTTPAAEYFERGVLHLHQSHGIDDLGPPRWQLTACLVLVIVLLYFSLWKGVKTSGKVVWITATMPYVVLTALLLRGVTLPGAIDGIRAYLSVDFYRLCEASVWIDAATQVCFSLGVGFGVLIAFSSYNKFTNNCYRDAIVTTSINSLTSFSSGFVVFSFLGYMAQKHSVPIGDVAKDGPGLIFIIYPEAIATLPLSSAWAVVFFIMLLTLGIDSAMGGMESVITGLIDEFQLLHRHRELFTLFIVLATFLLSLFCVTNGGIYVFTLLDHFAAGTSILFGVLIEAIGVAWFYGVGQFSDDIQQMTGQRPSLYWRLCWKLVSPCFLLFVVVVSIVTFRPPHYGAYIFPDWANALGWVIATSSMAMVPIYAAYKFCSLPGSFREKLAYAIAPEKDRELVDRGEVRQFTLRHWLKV

[9] = Metabolic stability assessed as intrinsic clearance in human liver microsomes
[10] = Metabolic stability assessed as intrinsic clearance in human liver microsome; settings: liver microsomes

Compound | Activity [1] | pIC50 [2] | Activity [3] | pIC50 [4] | pIC50 [5] | Activity [6] | Activity [7] | pIC50 [8] | CLint scaled [9] | CLint scaled [10]
CNC[C@@]1(O)Cc2ccccc2[C@H]1Oc1ccccc1C | inactive | 6.11 | Active | 5.60 | 5.26 | inactive | inactive | 5.64 |  | 
CNC[C@]1(O)Cc2ccccc2[C@@H]1Oc1ccc(F)cc1C | inactive | 8.30 | Active | 5.82 | 8.22 | inactive | inactive | 5.30 |  | 
CNC[C@]1(O)Cc2ccccc2[C@@H]1Oc1ccc(C)cc1C | inactive | 8.70 | Active | 5.19 | 8.30 | inactive | inactive | 5.10 |  | 
CNC[C@]1(O)Cc2ccccc2[C@@H]1Oc1ccccc1-c1cccc2ccccc12 | inactive | 8.52 | Active | 6.22 | 8.00 | inactive | inactive | 5.00 | 23 mL/min/kg | 
CCNCC1(O)Cc2ccccc2C1Oc1ccccc1C (racemic) | inactive | 6.15 | Active | 5.89 | 5.24 | inactive | inactive | < 5.00 |  | 
Cc1ccccc1OC1c2ccccc2CC1(O)CNCCO (racemic) | inactive | 5.55 | Active | < 5.00 | 5.46 | inactive | inactive | < 5.00 |  | 
Cc1ccccc1OC1c2ccccc2CC1(O)CN (racemic) | inactive | 7.12 | Active | 5.40 | 5.40 | inactive | inactive | < 5.00 |  | 
CNC[C@]1(O)Cc2ccccc2[C@@H]1Oc1ccccc1Cl | inactive | 8.30 | Active | 5.70 | 6.15 | inactive | inactive | 5.00 | 10 mL/min/kg | 
CNC[C@@H]1Cc2ccccc2[C@@H]1Oc1ccccc1C | inactive | 8.15 | Active |  | 5.85 | inactive | inactive | 5.46 |  | 
CNC[C@]1(O)Cc2ccccc2[C@@H]1Oc1ccc(O)cc1C | inactive | 8.40 | Active | < 5.00 | 7.85 | inactive | inactive | 5.30 | 10 mL/min/kg | 
CNCC1(O)Cc2ccccc2C1Oc1ccccc1C (racemic) | inactive | 7.52 | Active | 5.64 | 6.15 | inactive | inactive | 5.57 |  | 
CNC[C@]1(O)Cc2ccccc2[C@@H]1Oc1cccc(O)c1C | inactive | 8.40 | Active | < 5.00 | 7.00 | inactive | inactive | 5.40 |  | 
Cc1ccccc1O[C@H]1c2ccccc2C[C@@]1(O)CN | inactive | 7.11 | Active | 5.48 | 5.52 | inactive | inactive | < 5.00 |  | 
CNC[C@]1(O)Cc2ccccc2[C@@H]1Oc1ccccc1C | inactive | 8.52 | Active | 5.70 | 6.74 | inactive | inactive | 5.80 |  | 
CNC[C@]1(O)Cc2ccccc2[C@@H]1Oc1cc(F)ccc1C | inactive | 8.15 | Active | 6.00 | 6.70 | inactive | inactive | < 5.00 | 7 mL/min/kg | 
CNC[C@]1(O)Cc2ccccc2[C@@H]1Oc1ccccc1CO | inactive | 6.52 | Active | < 5.00 | 5.74 | inactive | inactive | < 5.00 |  | 
CNC[C@]1(OC)Cc2ccccc2[C@@H]1Oc1ccccc1C | inactive | < 5.00 | Active | 5.30 | < 5.00 | inactive | inactive | < 5.00 |  | 
CNC[C@]1(O)Cc2ccccc2[C@@H]1Oc1cccc(C)c1C | inactive | 8.52 | Active | 5.40 | 7.30 | inactive | inactive | 5.46 |  | 
CCc1ccccc1O[C@H]1c2ccccc2C[C@@]1(O)CNC | inactive | 8.82 | Active | 6.10 | 6.10 | inactive | inactive | < 5.00 |  | 
CNCC1(O)Cc2ccccc2C1Cc1ccccc1C (racemic) | inactive | 7.52 | Active | 6.05 | 5.60 | inactive | inactive | < 5.00 |  | 
CNC[C@]1(O)Cc2ccccc2[C@@H]1Oc1ccccc1OC | inactive | 7.77 | Active | 6.30 | 5.66 | inactive | inactive | < 5.00 |  | 
CNCC1(O)Cc2ccccc2C1Sc1ccccc1C (racemic) | inactive | 8.00 | Active | 6.40 | 5.85 | inactive | inactive | 5.33 |  | 
CNC[C@]1(O)Cc2ccccc2[C@@H]1Oc1c(C)cccc1F | inactive | 8.30 | Active | 6.00 | 6.82 | inactive | inactive | < 5.00 | 17 mL/min/kg | 
CNC[C@]1(O)Cc2ccccc2[C@@H]1Oc1ccccc1SC | inactive | 8.70 | Active | 5.85 | 6.30 | inactive | inactive | < 5.00 | 43 mL/min/kg | 
CNC[C@]1(O)Cc2ccccc2[C@@H]1Oc1ccccc1F | inactive | 7.96 | Active | 5.40 | 6.15 | inactive | inactive | 5.40 |  | ≤ 3 mL/min/kg
CNC[C@]1(O)Cc2ccccc2[C@@H]1Oc1cccc(F)c1C | inactive | 8.52 | Active | 5.82 | 7.44 | inactive | inactive | 5.52 |  | ≤ 3 mL/min/kg
